Source: ChEMBL document CHEMBL1275420, “Transfer of embB codon 306 mutations into clinical Mycobacterium tuberculosis strains alters susceptibility to ethambutol, isoniazid, and rifampin” (2008)
In brackets after ≈: the same amount, converted by molar mass.

test system: Mycobacterium tuberculosis; test: Antimycobacterial activity against Mycobacterium tuberculosis isolate 210 at 37 degC after 10 to 11 days by radiometric Bactec 460TB method; type: functional

Q: How did the MIC turn out when `CC[C@@H](CO)NCCN[C@@H](CC)CO` [ETHAMBUTOL] was run?
A: 2 µg/mL (≈ 9.79 µM)

Q: How did the MIC turn out when `NNC(=O)c1ccncc1` [ISONIAZID] was run?
A: 0.05 µg/mL (≈ 0.365 µM)

Q: How did the MIC turn out when `CO[C@H]1/C=C/O[C@@]2(C)Oc3c(C)c(O)c4c(O)c(c(/C=N/N5CCN(C)CC5)c(O)c4c3C2=O)NC(=O)/C(C)=C\C=C\[C@H](C)[C@H](O)[C@@H](C)[C@@H](O)[C@@H](C)[C@H](OC(C)=O)[C@@H]1C` [RIFAMPIN] was run?
A: 0.05 µg/mL (≈ 0.0608 µM)
